Measurements: patent US9873709B2 (priority 2013, dated 2018)
pIC50: −log10 of the molar value.

test system: JAK1-dependent STAT6 phosphorylation downstream of IL-13 stimulation in TF-1 human erythroleukemia cells; assay: cells; conditions: TF-1, read-out: IL-13-pSTAT6 IC50
Description: Inhibitor potency (EC50) was determined in cell-based assays designed to measure JAK1 dependent STAT phosphorylation.
Prior to use in the assays, TF-1 cells were starved of GM-CSF overnight in OptiMEM medium (Life Technologies, Grand Island, N.Y.) supplemented with 0.5% charcoal/dextran stripped fetal bovine serum (FBS), 0.1 mM non-essential amino acids (NEAA), and 1 mM sodium pyruvate. The assays were run in 384-well plates in serum-free OptiMEM medium using 300,000 cells per well. In a second assay approach, BEAS-2B human bronchial epithelial cells obtained from ATCC were plated at 100,000 cells per well of a 96-well plate one day prior to the experiment. The BEAS-2B assay was run in complete growth medium (bronchial epithelial basal medium plus bulletkit; Lonza; Basel, Switzerland).
Test compounds were serially diluted 1:2 in DMSO and then diluted 1:50 in medium just before use. Diluted compounds were added to the cells, for a final DMSO concentration of 0.2%, and incubated for 30 min (for the TF-1 assay) or 1 hr (for the BEAS-2B assay) at 37° C. Then, cells were stimulated with human recombinant cytokine at their respective EC90 concentrations, as previously determined for each individual lot. […] The resultant samples were frozen in the plates at −80° C. Compound mediated inhibition of STAT6 phosphorylation was measured in the cell lysates using MesoScale Discovery (MSD) technology (Gaithersburg, Md.).

SMILES	pIC50
CCOC(=O)N1CC=C(c2cccn3nc(Nc4ccc(C(=O)NC5CC6(CCNCC6)C5)cc4)nc23)CC1 [Example 2-27, ethyl 4-[2-[4-(7-azaspiro[3.5]nonan-2-ylcarbamoyl)anilino]-[1,2,4]triazolo[1,5-a]pyridin-8-yl]-3,6-dihydro-2H-pyridine-1-carboxylate]	6.59
O=C(CCC(F)(F)F)N1CC=C(c2cccn3nc(Nc4ccc(C(=O)N5CCC6(CCNC6)C5)cc4)nc23)CC1 (stereo not shown) [Example 2-28, 1-[4-[2-[4-(2,7-diazaspiro[4.4]nonane-2-carbonyl)anilino]-[1,2,4]triazolo[1,5-a]pyridin-8-yl]-3,6-dihydro-2H-pyridin-1-yl]-4,4,4-trifluoro-butan-1-one]	6.68
O=C(CCC(F)(F)F)N1CC=C(c2cccn3nc(Nc4ccc(C(=O)N5CCC6(CCNCC6)CC5)cc4)nc23)CC1 [Example 2-29, 1-[4-[2-[4-(3,9-diazaspiro[5.5]undecane-3-carbonyl)anilino]-[1,2,4]triazolo[1,5-a]pyridin-8-yl]-3,6-dihydro-2H-pyridin-1-yl]-4,4,4-trifluoro-butan-1-one]	7.10
O=C(NCC1CNCCO1)c1ccc(Nc2nc3c(C4=CCN(C(=O)CCC(F)(F)F)CC4)cccn3n2)cc1 (stereo not shown) [Example 2-30, N-(morpholin-2-ylmethyl)-4-[[8-[1-(4,4,4-trifluorobutanoyl)-3,6-dihydro-2H-pyridin-4-yl]-[1,2,4]triazolo[1,5-a]pyridin-2-yl]amino]benzamide]	7.39
CNCCNC(=O)c1ccc(Nc2nc3c(C4=CCN(C(=O)CCC(F)(F)F)CC4)cccn3n2)cc1 [Example 2-31, N-[2-(methylamino)ethyl]-4-[[8-[1-(4,4,4-trifluorobutanoyl)-3,6-dihydro-2H-pyridin-4-yl]-[1,2,4]triazolo[1,5-a]pyridin-2-yl]amino]benzamide]	6.74
O=C(NCCN1CCNCC1)c1ccc(Nc2nc3c(C4=CCN(C(=O)CCC(F)(F)F)CC4)cccn3n2)cc1 [Example 2-32, N-(2-piperazin-1-ylethyl)-4-[[8-[1-(4,4,4-trifluorobutanoyl)-3,6-dihydro-2H-pyridin-4-yl]-[1,2,4]triazolo[1,5-a]pyridin-2-yl]amino]benzamide]	6.27
O=C(CCC(F)(F)F)N1CC=C(c2cccn3nc(Nc4ccc(C(=O)N5CCNCC5CO)cc4)nc23)CC1 (stereo not shown) [Example 2-33, 4,4,4-trifluoro-1-[4-[2-[4-[2-(hydroxymethyl)piperazine-1-carbonyl]anilino]-[1,2,4]triazolo[1,5-a]pyridin-8-yl]-3,6-dihydro-2H-pyridin-1-yl]butan-1-one]	7.63
O=C(CCC(F)(F)F)N1CC=C(c2cccn3nc(Nc4ccc(C(=O)N5CCCCC56CCCNC6)cc4)nc23)CC1 (stereo not shown) [Example 2-34, 1-[4-[2-[4-(1,8-diazaspiro[5.5]undecane-1-carbonyl)anilino]-[1,2,4]triazolo[1,5-a]pyridin-8-yl]-3,6-dihydro-2H-pyridin-1-yl]-4,4,4-trifluoro-butan-1-one]	6.45
O=C(CCC(F)(F)F)N1CC=C(c2cccn3nc(Nc4ccc(C(=O)N5CC6(CCNC6)C5)cc4)nc23)CC1 [Example 2-35, 1-[4-[2-[4-(2,7-diazaspiro[3.4]octane-2-carbonyl)anilino]-[1,2,4]triazolo[1,5-a]pyridin-8-yl]-3,6-dihydro-2H-pyridin-1-yl]-4,4,4-trifluoro-butan-1-one]	7.02
O=C(CCC(F)(F)F)N1CC=C(c2cccn3nc(Nc4ccc(C(=O)N5CC6CNCC(C5)O6)cc4)nc23)CC1 [Example 2-37, 4,4,4-trifluoro-1-[4-[2-[4-(9-oxa-3,7-diazabicyclo[3.3.1]nonane-3-carbonyl)anilino]-[1,2,4]triazolo[1,5-a]pyridin-8-yl]-3,6-dihydro-2H-pyridin-1-yl]butan-1-one]	7.07
CCN1CCC(CN(C)C(=O)c2ccc(Nc3nc4c(C5=CCN(C(=O)CCC(F)(F)F)CC5)cccn4n3)cc2)C1 (stereo not shown) [Example 2-39, N-[(1-ethylpyrrolidin-3-yl)methyl]-N-methyl-4-[[8-[1-(4,4,4-trifluorobutanoyl)-3,6-dihydro-2H-pyridin-4-yl]-[1,2,4]triazolo[1,5-a]pyridin-2-yl]amino]benzamide]	7.46
Cc1ccnc(CNC(=O)c2ccc(Nc3nc4c(C5=CCN(C(=O)CCC(F)(F)F)CC5)cccn4n3)cc2)c1 [Example 2-41, N-[(4-methyl-2-pyridyl)methyl]-4-[[8-[1-(4,4,4-trifluorobutanoyl)-3,6-dihydro-2H-pyridin-4-yl]-[1,2,4]triazolo[1,5-a]pyridin-2-yl]amino]benzamide]	8.28
Cc1ncccc1CNC(=O)c1ccc(Nc2nc3c(C4=CCN(C(=O)CCC(F)(F)F)CC4)cccn3n2)cc1 [Example 2-42, N-[(2-methyl-3-pyridyl)methyl]-4-[[8-[1-(4,4,4-trifluorobutanoyl)-3,6-dihydro-2H-pyridin-4-yl]-[1,2,4]triazolo[1,5-a]pyridin-2-yl]amino]benzamide]	8.33
CC(CC(=O)N1CC=C(c2cccn3nc(Nc4ccc(C(=O)N(C)C5CCN(C)CC5)cc4)nc23)CC1)C(F)(F)F (stereo not shown) [Example 2-43, N-methyl-N-(1-methyl-4-piperidyl)-4-[[8-[1-(4,4,4-trifluoro-3-methyl-butanoyl)-3,6-dihydro-2H-pyridin-4-yl]-[1,2,4]triazolo[1,5-a]pyridin-2-yl]amino]benzamide]	7.56
O=C(CCC(F)(F)F)N1CC=C(c2cccn3nc(Nc4ccc(C(=O)N5CCC(N6CCOCC6)C5)cc4)nc23)CC1 (stereo not shown) [Example 2-45, 4,4,4-trifluoro-1-[4-[2-[4-(3-morpholinopyrrolidine-1-carbonyl)anilino]-[1,2,4]triazolo[1,5-a]pyridin-8-yl]-3,6-dihydro-2H-pyridin-1-yl]butan-1-one]	8.05
O=C(CCC(F)(F)F)N1CC=C(c2cccn3nc(Nc4ccc(C(=O)N5CCC(N6CCCC6)CC5)cc4)nc23)CC1 [Example 2-46, 4,4,4-trifluoro-1-[4-[2-[4-(4-pyrrolidin-1-ylpiperidine-1-carbonyl)anilino]-[1,2,4]triazolo[1,5-a]pyridin-8-yl]-3,6-dihydro-2H-pyridin-1-yl]butan-1-one]	7.69
CC1CCCCN1CCCNC(=O)c1ccc(Nc2nc3c(C4=CCN(C(=O)CCC(F)(F)F)CC4)cccn3n2)cc1 (stereo not shown) [Example 2-47, N-[3-(2-methyl-1-piperidyl)propyl]-4-[[8-[1-(4,4,4-trifluorobutanoyl)-3,6-dihydro-2H-pyridin-4-yl]-[1,2,4]triazolo[1,5-a]pyridin-2-yl]amino]benzamide]	7.80
CN1CCCC1CCNC(=O)c1ccc(Nc2nc3c(C4=CCN(C(=O)CCC(F)(F)F)CC4)cccn3n2)cc1 (stereo not shown) [Example 2-48, N-[2-(1-methylpyrrolidin-2-yl)ethyl]-4-[[8-[1-(4,4,4-trifluorobutanoyl)-3,6-dihydro-2H-pyridin-4-yl]-[1,2,4]triazolo[1,5-a]pyridin-2-yl]amino]benzamide]	7.47
Cc1ccc(C2CCCN(C(=O)c3ccc(Nc4nc5c(C6=CCN(C(=O)CCC(F)(F)F)CC6)cccn5n4)cc3)C2)nc1 (stereo not shown) [Example 2-50, 4,4,4-tri fluoro-1-[4-[2-[4-[3-(5-methyl-2-pyridyl)piperidine-1-carbonyl]anilino]-[1,2,4]triazolo[1,5-a]pyridin-8-yl]-3,6-dihydro-2H-pyridin-1-yl]butan-1-one]	7.19
